The record followed here is patent publication US11731943B2, “Therapeutic compounds, compositions and methods of use thereof” (priority 2016, dated 2023).

Like-named read-outs stand apart in the source and are kept apart here.

For test [1], the system named is JAK1-dependent STAT6 phosphorylation downstream of IL-13 stimulation in BEAS-2B human bronchial epithelial cells. In words: JAK1 pathway assay in BEAS-2B cells (IL-13-pSTAT6, MSD). The test is classed as cell-based. The conditions noted are these: BEAS-2B cells, IL-13 stimulation, read-out: IL-13 p-STAT6 BEAS-2B IC50.
Test [2] has as its target isolated recombinant JAK2 kinase domain (Homo sapiens (Human), UniProt O60674). In words: JAK2 enzyme assay (Caliper LabChip, Ki). In kind it is biochemical. The procedure, abridged:
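Recombinant human JAK1 or JAK2 kinase domain phosphorylating a 5-carboxyfluorescein-labelled JAK3-derived peptide; 30 min at 22 °C, stopped with EDTA (50 mM final). Phosphorylated product measured as a fraction of total peptide by Caliper LabChip mobility shift.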

In test [3] the target is isolated recombinant JAK1 kinase domain (Homo sapiens (Human), UniProt P23458). In words: JAK1 enzyme assay (Caliper LabChip, Ki). The conditions noted are these: read-out: JAK1 Ki. In kind it is biochemical. The procedure, abridged:
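Recombinant human JAK1 kinase domain phosphorylating an N-terminally 5-carboxyfluorescein-labelled JAK3-derived peptide, 30 min at 22 °C, stopped with EDTA (50 mM final). Phosphorylated fraction of total peptide read by Caliper LabChip mobility shift; Ki from Morrison tight-binding fit corrected for ATP competition (Ki=Ki,app/(1+[ATP]/Km,app)).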

Sequence of isolated recombinant JAK1 kinase domain (P23458 875-1153): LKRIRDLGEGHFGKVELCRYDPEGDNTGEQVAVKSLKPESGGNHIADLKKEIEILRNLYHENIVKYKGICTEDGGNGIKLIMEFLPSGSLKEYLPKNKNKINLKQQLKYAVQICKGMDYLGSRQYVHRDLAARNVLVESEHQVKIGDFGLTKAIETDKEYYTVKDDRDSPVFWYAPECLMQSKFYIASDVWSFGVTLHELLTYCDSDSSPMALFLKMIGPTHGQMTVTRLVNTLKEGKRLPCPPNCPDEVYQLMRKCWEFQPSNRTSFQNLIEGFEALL
Sequence of isolated recombinant JAK2 kinase domain (O60674 849-1124): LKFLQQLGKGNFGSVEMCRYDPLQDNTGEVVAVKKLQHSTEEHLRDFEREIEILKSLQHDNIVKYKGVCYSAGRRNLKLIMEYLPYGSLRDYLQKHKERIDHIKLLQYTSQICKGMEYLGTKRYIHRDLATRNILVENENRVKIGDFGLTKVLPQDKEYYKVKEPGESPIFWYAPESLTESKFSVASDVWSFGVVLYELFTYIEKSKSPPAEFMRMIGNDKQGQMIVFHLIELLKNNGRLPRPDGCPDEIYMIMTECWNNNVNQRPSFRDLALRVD

`CS(=O)(=O)Nc1cccc(CN2CCC(CC#N)(n3cc(C(N)=O)c(NC(=O)C4CC4)n3)CC2)c1` [Example 45]: the IC50 in test [1] (Homo sapiens, BEAS-2B) is more than 1000 nM. The Ki in test [2] came to 8.5 nM; in test [3], 1.9 nM.
In the same order, the values of `COc1cc(CN2CCC(CC#N)(n3cc(C(N)=O)c(NC(=O)C4CC4)n3)CC2)ccc1-c1ccccc1` [Example 162, 1-[4-(cyanomethyl)-1-[(3-methoxy-4-phenyl-phenyl)methyl]-4-piperidyl]-3-(cyclopropanecarbonylamino) pyrazole-4-carboxamide] are 293 nM, 10.6 nM and 3.1 nM.
In the same order, the values of `C#Cc1ccc(NC2CCC(CC#N)(n3cc(C(N)=O)c(NC(=O)C4CC4)n3)CC2)cc1` (stereo not drawn) [Example 279, 1-[1-(cyanomethyl)-4-(4-ethynylanilino)cyclohexyl]-3-(cyclopropanecarbonylamino) pyrazole-4-carboxamide] are 92 nM, 14 nM and 1.2 nM.
Consider `COC(=O)Nc1nn(C2(CC#N)CCN(Cc3ccc(-c4ccco4)c(O)c3)CC2F)cc1C(N)=O` (stereo not drawn) [Example 224, methyl N-[4-carbamoyl-1-[4-(cyanomethyl)-3-fluoro-1-[[4-(2-furyl)-3-hydroxy-phenyl]methyl]-4-piperidyl]pyrazol-3-yl]carbamate], for which, in test [1] (Homo sapiens, BEAS-2B), the IC50 was found to be 19 nM. Moreover, the Ki in test [2] worked out at 0.15 nM; in test [3] it was 0.16 nM.
In the same order, the values of `N#CCC1(n2cc(C(N)=O)c(NC(=O)C3CC3)n2)CCN(Cc2ccc(-c3ncco3)cc2)CC1F` (stereo not drawn) [Example 255, 1-[4-(cyanomethyl)-3-fluoro-1-[(4-oxazol-2-ylphenyl)methyl]-4-piperidyl]-3-(cyclopropanecarbonylamino) pyrazole-4-carboxamide] are 70 nM, 0.96 nM and 1.2 nM.
For `N#CC[C@]1(n2cc(C(N)=O)c(NC(=O)C3CC3)n2)CC[C@@H](N2CC(O)(C(F)(F)F)C2)CC1` [Example 137, 1-[1-(cyanomethyl)-4-[3-hydroxy-3-(trifluoromethyl)azetidin-1-yl]cyclohexyl]-3-(cyclopropanecarbonylamino) pyrazole-4-carboxamide], in that order: more than 1000 nM, 21.7 nM and 2.7 nM.
With `COCc1cccc(-c2ccc(CN3CCC(CC#N)(n4cc(C(N)=O)c(NC(=O)C5CC5)n4)CC3)cc2)c1` [Example 157, 1-[4-(cyanomethyl)-1-[[4-[3-(methoxymethyl)phenyl]phenyl]methyl]-4-piperidyl]-3-(cyclopropanecarbonylamino) pyrazole-4-carboxamide], the IC50 in test [1] (Homo sapiens, BEAS-2B) is 104 nM. For the same molecule, the results for the inhibitory constant (Ki) in test [2] and in test [3] were 13.7 nM and 1.6 nM, respectively.
For `C#Cc1ccc(CN2CCC(CC#N)(n3cc(C(N)=O)c(NC(=O)OC)n3)C(F)C2)cc1` (stereo not drawn) [Example 270, methyl N-[4-carbamoyl-1-[4-(cyanomethyl)-1-[(4-ethynylphenyl)methyl]-3-fluoro-4-piperidyl]pyrazol-3-yl]carbamate], in that order: 21 nM, 0.9 nM and 0.41 nM.
In the same order, the values of `COC(=O)Nc1nn(C2(CC#N)CCN(Cc3ccc(-c4ccccc4)nc3F)CC2)cc1C(N)=O` [Example 198, methyl N-[4-carbamoyl-1-[4-(cyanomethyl)-1-[(2-fluoro-6-phenyl-3-pyridyl)methyl]-4-piperidyl]pyrazol-3-yl]carbamate] are 74 nM, 3.8 nM and 1.2 nM.
In the same order, the values of `COC(=O)Nc1nn(C2(CC#N)CCN(Cc3cnc(-c4ccccc4)cc3F)CC2F)cc1C(N)=O` (stereo not drawn) [Example 251, methyl N-[4-carbamoyl-1-[4-(cyanomethyl)-3-fluoro-1-[(4-fluoro-6-phenyl-3-pyridyl)methyl]-4-piperidyl]pyrazol-3-yl]carbamate] are 30 nM, 0.3 nM and 0.34 nM.
Turning to `N#CCC1(n2cc(C(N)=O)c(NC(=O)C3CC3)n2)CCC(Oc2ccc(-c3ccccc3)cc2)CC1` (single isomer, unassigned) [Example 210, 1-(4-([1,1′-Biphenyl]-4-yloxy)-1-(cyanomethyl)cyclohexyl)-3-(cyclopropanecarboxamido)-1H-pyrazole-4-carboxamide], in test [1], the IC50 was found to be 75 nM. In addition, the figures for the Ki in test [2] and in test [3] were 5.1 nM and 2.1 nM, respectively.
`CC1(Oc2ccc(C(F)(F)F)cc2)CN(C2CCC(CC#N)(n3cc(C(N)=O)c(NC(=O)C4CC4)n3)CC2)C1` (stereo not drawn) [Example 295, 1-[1-(cyanomethyl)-4-[3-methyl-3-[4-(trifluoromethyl)phenoxy]azetidin-1-yl]cyclohexyl]-3-(cyclopropanecarbonylamino) pyrazole-4-carboxamide]: the 50% inhibitory concentration (IC50) in test [1] (Homo sapiens, BEAS-2B) was 85 nM. The inhibition constant (Ki) in test [2] came to 2.9 nM; in test [3] it was 2 nM.
On to `N#CCC1(n2cc(C(N)=O)c(NC(=O)C3CC3)n2)CCN(Cc2ccc(-c3cccc(F)c3)cc2)CC1` [Example 143, 1-[4-(cyanomethyl)-1-[[4-(3-fluorophenyl)phenyl]methyl]-4-piperidyl]-3-(cyclopropanecarbonylamino) pyrazole-4-carboxamide], for which the IC50 in test [1] (Homo sapiens, BEAS-2B) is 49 nM. Besides, the figures for the inhibitory constant (Ki) in test [2] and in test [3] were 5.5 nM and 0.7 nM, respectively.
For `COC(=O)Nc1nn(C2(CC#N)CCN(Cc3ccc(-n4ncc(C)n4)cc3)CC2F)cc1C(N)=O` (stereo not drawn) [Example 267, methyl N-[4-carbamoyl-1-[4-(cyanomethyl)-3-fluoro-1-[[4-(4-methyltriazol-2-yl)phenyl]methyl]-4-piperidyl]pyrazol-3-yl]carbamate], in that order: 51 nM, 0.84 nM and 0.86 nM.
For the molecule `N#CCC1(n2cc(C(N)=O)c(NC(=O)C3CC3)n2)CCN(Cc2ccc(C3=CCCCC3)cc2)CC1F` (stereo not drawn) [Example 229, 1-[4-(cyanomethyl)-1-[[4-(cyclohexen-1-yl)phenyl]methyl]-3-fluoro-4-piperidyl]-3-(cyclopropanecarbonylamino) pyrazole-4-carboxamide], in test [1] (Homo sapiens, BEAS-2B), the IC50 is 25 nM. Further, the Ki in test [2] is 0.77 nM; in test [3] it was 0.48 nM.
For `N#CC[C@]1(n2cc(C(N)=O)c(NC(=O)C3CC3)n2)CC[C@H](N2CC(C(F)(F)F)C2)CC1` (single isomer, unassigned) [Example 8], in test [1] (Homo sapiens, BEAS-2B), the IC50 came out at 194 nM. Besides, the Ki in test [2] amounted to 11 nM; in test [3], 1.7 nM.
Regarding `N#CCC1(n2cc(C(N)=O)c(NC(=O)C3CC3)n2)CCN(Cc2ccc(C#N)cc2)CC1` [Example 66], the IC50 in test [1] (Homo sapiens, BEAS-2B) was 910 nM. Also, the Ki in test [2] turned out to be 50.2 nM; in test [3], 4 nM.
For `N#CCC1(n2cc(C(N)=O)c(NC(=O)C3CC3)n2)CCN(Cc2cccc(F)c2)CC1` [Example 56], in that order: 363 nM, 24.3 nM and 2.4 nM.
For `CCc1nc(-c2ccc(CN3CCC(CC#N)(n4cc(C(N)=O)c(NC(=O)OC)n4)C(F)C3)cc2)cs1` (stereo not drawn) [Example 252, methyl N-[4-carbamoyl-1-[4-(cyanomethyl)-1-[[4-(2-ethylthiazol-4-yl)phenyl]methyl]-3-fluoro-4-piperidyl]pyrazol-3-yl]carbamate], in that order: 22 nM, 0.52 nM and 0.3 nM.
For `CC1(Oc2ccc(OC(F)F)cc2)CN(C2CCC(CC#N)(n3cc(C(N)=O)c(NC(=O)C4CC4)n3)CC2)C1` (stereo not drawn) [Example 291, 1-[1-(cyanomethyl)-4-[3-[4-(difluoromethoxy)phenoxy]-3-methyl-azetidin-1-yl]cyclohexyl]-3-(cyclopropanecarbonylamino) pyrazole-4-carboxamide], in that order: 54 nM, 2.1 nM and 0.86 nM.
For `N#CCC1(n2cc(C(N)=O)c(NC(=O)C3CC3)n2)CCN(C(=O)NC2CC(F)(F)C2)CC1` [Example 21, 4-(4-Carbamoyl-3-(cyclopropanecarboxamido)-1H-pyrazol-1-yl)-4-(cyanomethyl)-N-(3,3-difluorocyclobutyl) piperidine-1-carboxamide], in test [1] (Homo sapiens, BEAS-2B), the 50% inhibitory concentration (IC50) was more than 1000 nM. Further, the inhibition constant (Ki) in test [2] turned out to be 48.4 nM; in test [3], 2.3 nM.
In the same order, the values of `COC(=O)Nc1nn(C2(CC#N)CCN(Cc3ccc(C4=CCCCC4)nc3F)CC2F)cc1C(N)=O` (stereo not drawn) [Example 264, methyl N-[4-carbamoyl-1-[4-(cyanomethyl)-1-[[6-(cyclohexen-1-yl)-2-fluoro-3-pyridyl]methyl]-3-fluoro-4-piperidyl]pyrazol-3-yl]carbamate] are 88 nM, 1.4 nM and 0.79 nM.
In the same order, the values of `COC(=O)Nc1nn(C2(CC#N)CCN(Cc3ccc(-c4ccccc4)c(O)c3)CC2)cc1C(N)=O` [Example 186, Methyl (4-carbamoyl-1-(4-(cyanomethyl)-1-((2-hydroxy-[1,1′-biphenyl]-4-yl) Methyl)piperidin-4-yl)-1H-pyrazol-3-yl)carbamate] are 68 nM, 1 nM and 0.24 nM.
In the same order, the values of `Cc1c(CN2CCC(CC#N)(n3cc(C(N)=O)c(NC(=O)C4CC4C#N)n3)C(F)C2)ccc(-c2ccccc2)c1O` (stereo not drawn) [Example 250, 3-[(2-cyanocyclopropanecarbonyl)amino]-1-[4-(cyanomethyl)-3-fluoro-1-[(3-hydroxy-2-methyl-4-phenyl-phenyl)methyl]-4-piperidyl]pyrazole-4-carboxamide; formic acid] are 80 nM, 0.84 nM and 0.31 nM.
